The values below come from PMC10254852, “Design, Synthesis and Anticancer Evaluation of Nitroimidazole Radiosensitisers” (Molecules, 2023).

One series concerns UT-SCC-74B cells. The series is described as follows: In vitro cytotoxicity, 4 h exposure oxic/anoxic, 5-day regrowth, sulforhodamine B. It counts as cell-based, human. The conditions noted are these: for IC50: Homo sapiens, 4 h exposure, mean ± SEM; for HCR: IC50(oxic)/IC50(anoxic).
The test system of series [1] is HCT116/54C cells. The series is described as above. The following applies: HCT116/54C; for HCR: IC50(oxic)/IC50(anoxic); for IC50: Homo sapiens, 4 h exposure, mean ± SEM, n = 3–4. It counts as cell-based, human.
Series [2] is described as follows: Tolerability at maximum achievable dose, i.v. It counts as in vivo. The following applies: i.v. injection, NIH-III mice. An excerpt:
The most promising 2-nitroimidazole 34 and 5-nitroimidazole 38 compounds were selected for in vivo evaluation on the basis of solubility, in vitro cytotoxicity and radiosensitisation data. These compounds were both well tolerated by i.v. injection in NIH-III mice at their maximum achievable dose (MAD) of 2.2 mmol/kg. This MAD was also achieved for some of our earlier compounds, but only when we employed a phosphate prodrug strategy owing to their poor solubility. […] The Cmax and AUC exceeded that achieved for earlier phosphate prodrugs 9–12, but was less than 2. On this basis we advanced both morpholine analogues into in vivo radiosensitisation studies.
(§1) Specific pathogen-free six- to eight-week-old female NIH-III mice, bred in the Vernon Jansen Unit, University of Auckland, were used for animal experiments. Animals had ad libitum access to food and water and were maintained in microisolator cages on a 12 h light/dark cycle. All treatments were administered by i.v. injection at a dose of 2.2 mmol/kg and injection volume of 10 mL/kg. Compounds 2, 34 and 38 were administered as solutions in saline containing 1% DMSO or for 9–12 as solutions in saline containing 2 molar equivalents of NaHCO3. Control animals received an i.v. injection of saline at 10 mL/kg. All animal experiments were conducted under the auspices of the University of Auckland Animal Ethics Committee (approval 1781).

For series [3], the system named is HCT116/54C cells. Briefly: In vitro radiosensitisation under anoxia, clonogenic survival. It counts as cell-based, human. The conditions noted are these: compound 1 mM, radiation dose for 1% survival/radiation dose for 1% survival with compound, mean ± SEM.
Another series concerns FaDu cells. The series is described as follows: In vitro cytotoxicity, 4 h exposure oxic/anoxic, 5-day regrowth, sulforhodamine B. The format is cell-based. The conditions noted are these: for IC50: Homo sapiens, 4 h exposure, mean ± SEM; for HCR: IC50(oxic)/IC50(anoxic).
Series [4] has as its system HCT116/54C tumour xenografts. Briefly: Tumour growth inhibition in combination with radiation. It counts as in vivo, NIH-III mice. The following applies: HCT116/54C tumours. Here is the method: as §1
Compounds were evaluated for their ability to inhibit tumour growth in combination with a single dose of radiation (10 Gy) in HCT116/54C or UT-SCC-74B tumour xenografts on the backs of NIH-III mice. In addition, a fractionated radiation schedule (5 Gy on Days 1, 7 and 14) was explored in HCT116/54C tumour xenografts. Mice were randomly assigned to 4 treatment groups and treated with: (A) vehicle control, (B) 10 Gy RAD only, (C) sensitiser only, or (D) sensitiser given 10 min before 10 Gy RAD. Drugs were administered by i.v. injection at 2.2 mmol/kg either as a single dose or three doses on Days 1, 7 and 14 in the fractionated study. Treatment commenced when the average tumour size reached approximately 250 mm^3, and tumour size was measured until study endpoint. Mice were placed in a custom-built lead-shielded jig that allowed irradiation of the whole tumour but shielded the mouse from radiation. Survival analysis represented the time taken for tumours to increase in relative tumour volume by 4× from the start of treatment (RTV^4). The significance of differences in activity between the groups was assessed by log-rank with Holm–Sidak multiple comparison analysis.

The test system of another series is UT-SCC-74B tumours. Briefly: Tumour radiosensitisation: ex vivo clonogenic assay. It counts as in vivo, NIH-III mice.
The subject of another series is HCT116/54C tumours. The series is described as above. It counts as in vivo, NIH-III mice.
Details of series [5]: method as in PMID 29253343. The conditions noted are these: comparison values for earlier alcohols; cited from earlier work.
Setting [6] is: anoxic, n = 3–4, read-out: IC50 Anoxic.
Where [7] appears, read: oxic, n = 3–4, read-out: IC50 Oxic.
The mark [8] stands for this setting: 2.2 mmol/kg i.v. 5 min prior to 10 Gy radiation, surviving fraction after radiation/surviving fraction after drug + radiation.
The mark [9] stands for this setting: 2.2 mmol/kg i.v. + 10 Gy, one-way ANOVA.
[10] abbreviates: 2.2 mmol/kg i.v., 10 Gy, mechanism experiment (Figure 3).

By IC50 is commonly meant the concentration that inhibits the measured activity by half. Broadly, the aqueous solubility is the concentration that dissolves in the medium under given conditions.

Each structure is given as a SMILES string. Values after ≈ are worked out from the molar mass of the structure shown. Read-outs that look alike come from different tables or passages of the source.

For the compound `O=[N+]([O-])c1cncn1CS(=O)(=O)NCCN1CCOCC1` [Compound 38], the IC50 in the series on UT-SCC-74B cells (setting [6]) is 1.5 ± 0.3 mM; in the series with UT-SCC-74B cells (setting [7]), 13.1 ± 2.8 mM; in the series with HCT116/54C cells [1] (anoxic, read-out: IC50 Anoxic) it was 1.2 ± 0.1 mM; in the series with HCT116/54C cells [1] (oxic, read-out: IC50 Oxic) it was 13.7 ± 2 mM; in the series with FaDu cells (setting [6]), 1.8 ± 0.1 mM; with FaDu cells (setting [7]) it was 10.6 ± 0.6 mM. In addition, the HCR in the series with UT-SCC-74B cells is given as 8.6; in the series with HCT116/54C cells [1], 11.2; with FaDu cells, 5.8. Moreover, the “maximum achievable dose (MAD), well tolerated” value in [2] is listed as 2.2 mmol/kg. In addition, in the series with HCT116/54C cells [3], the “SER at 1 mM” value came out at 1.39 ± 0.01. The “survival (time to RTV^4) vs radiation alone” value in series [4] (fractionated radiation, p < 0.05) is “significantly increased survival compared to radiation alone”. For the same compound, the “tumour growth delay with fractionated radiation” value in [4] (qw × 3, 5 Gy, 2.2 mmol/kg i.v.) is on record as “delayed tumour growth relative to radiation alone”. In addition, the “Sensitisation Ratio” value in the series with UT-SCC-74B tumours (setting [8]) came out at 11.5; with HCT116/54C tumours (setting [8]), 3.43. For the same compound, the “enhancement of tumour cell killing by radiotherapy (RAD vs drug + RAD)” value with UT-SCC-74B tumours (setting [9]) is “significantly enhanced tumour cell killing by radiotherapy”. For the same compound, in the series on HCT116/54C tumours (setting [9]), the “enhancement of tumour killing of radiotherapy (RAD vs drug + RAD)” value was “significantly enhanced the tumour killing of radiotherapy”. Moreover, the “SR, drug given 5 min before radiation” value in the series with HCT116/54C tumours (setting [10]) turned out to be 8.26. Further, the “SR, drug given 20 min after radiation” value in the series on HCT116/54C tumours (setting [10]) stood at 1.38.
As for `O=[N+]([O-])c1cncn1CS(=O)(=O)NCCO` [Compound 7], the IC50 with UT-SCC-74B cells (setting [6]) worked out at 1.3 ± 0.04 mM; with UT-SCC-74B cells (setting [7]), 4.2 ± 0.9 mM; with HCT116/54C cells [1] (anoxic, read-out: IC50 Anoxic), 1.4 ± 0.1 mM; in the series on HCT116/54C cells [1] (oxic, read-out: IC50 Oxic) it was 4.6 ± 0.3 mM; with FaDu cells (setting [6]), 1.4 ± 0.02 mM; with FaDu cells (setting [7]), 5.4 ± 0.7 mM. In addition, the figures for the HCR with UT-SCC-74B cells, in the series on HCT116/54C cells [1] and in the series on FaDu cells were 3.3, 3.3 and 4.0, respectively. Further, the “SER at 1 mM” value in the series with HCT116/54C cells [3] worked out at 1.41 ± 0.02. In series [5], the aqueous solubility is 23 mM (≈ 5760 µg/mL).
With `O=[N+]([O-])c1nccn1CS(=O)(=O)NCCO` [Compound 5], the IC50 with UT-SCC-74B cells (setting [6]) was 0.24 ± 0.04 mM; in the series with UT-SCC-74B cells (setting [7]), 4.3 ± 0.8 mM; with HCT116/54C cells [1] (anoxic, read-out: IC50 Anoxic) it was 0.29 ± 0.02 mM; in the series on HCT116/54C cells [1] (oxic, read-out: IC50 Oxic) it was > 6.2 mM; in the series on FaDu cells (setting [6]), 0.23 ± 0.01 mM; with FaDu cells (setting [7]) it was 2.3 ± 0.2 mM. The HCR in the series with UT-SCC-74B cells is 17.7; with HCT116/54C cells [1] it was >21; with FaDu cells, 10.0. Also, the “SER at 1 mM” value in the series on HCT116/54C cells [3] worked out at 1.72 ± 0.06. In addition, the aqueous solubility in [5] is given as 18 mM (≈ 4500 µg/mL).
